The text below walks through data of patent publication US5268282A, “Cyclic FR-900520 microbial biotransformation agent” (Merck & Co., Inc., priority 1992, dated 1993).

“Also recorded” adds a separate entry of the source.

For data set [1] the following is noted: immunosuppressant; EPO Publication No. 0184162; cited from earlier work.
For data set [2], the system named is splenic T-cells (mouse T lymphocytes). The data set can be described thus: T-cell proliferation assay (ionomycin + PMA induced T-cell stimulation, tritiated thymidine uptake). In kind it is cell-based, mouse (C57Bl/6). The method, then: The principle of this assay is to measure the proliferation of mouse T lymphocytes stimulated with the combination of ionomycin plus PMA.
Cells were pelleted by centrifugation at 1500 rpm for 8 minutes. Contaminating red cells were removed by treating the pellet with ammonium chloride lysing buffer (GIBCO) for 2 minutes at 4° C. Cold medium was added and cells were again centrifuged at 1500 rpm for 8 minutes. T lymphocytes were then isolated by separation of the cell suspension on nylon wool columns as follows: Nylon wool columns were prepared by packing approximately 4 grams of washed and dried nylon wool into 20 ml plastic syringes. The columns were sterilized by autoclaving at 250° F. for 30 minutes. Nylon wool columns were wetted with warm (37° C.) culture medium and rinsed with the same medium. Washed spleen cells resuspended in warm medium were slowly applied to the nylon wool. The columns were then incubated in an upright position at 37° C. for 1 hour. Non-adherent T lymphocytes were eluted from the columns with warm culture medium and the cell suspensions were spun as above.
The cell suspension was immediately distributed into 96 well flat-bottom microculture plates (Costar) at 200 μl/well. […] Radioactivity of filter discs corresponding to individual wells was measured by standard liquid scintillation counting methods (Betacounter). Mean counts per minute of replicate wells were calculated and the results expressed as percent inhibition of tritiated thymidine uptake (proliferation) as follows: [formula]

The nature of data set [3]: Solubility (physical characteristics). In kind it is physicochemical. Conditions: methanol.

Consider `C=CC[C@@H]1/C=C(\C)C[C@H](C)C[C@H](OC)[C@H]2O[C@@](O)(C(=O)C(=O)N3CCCC[C@H]3C(=O)O[C@H](/C(C)=C/[C@@H]3CC[C@@H](O)[C@H](OC)C3)[C@H](C)[C@@H](O)CC1=O)[C@H](C)C[C@@H]2OC` [FK-506], for which the “times more effective than cyclosporin (reputed)” value in data set [1] is 100 times.
For `C=CCC1C=C(C)CC(C)CC(OC)C2OC(O)(C(=O)C(=O)N3CCCCC3C(=O)OC(C(C)=CC3CCC(O)C(OC)C3)C(C)C(O)CC1=O)C(C)CC2OC` (stereo not drawn) [FR 900506, reference compound], the inhibition at 0.01 µg/mL in data set [2] (Mus musculus, T-cell, read-out: inhibition by the standard) is 99%.
As to `CC[C@@H]1C=C2COC1(O)C[C@H](O)[C@@H](C)[C@@H](/C(C)=C/[C@@H]1CC[C@@H](O)[C@H](OC)C1)OC(=O)[C@@H]1CCCCN1C(=O)C(=O)[C@]1(O)O[C@H]([C@@H](OC)C[C@@H](C)C2)[C@@H](OC)C[C@H]1C` [Compound I], the “Inhibition of T-cell proliferation upon addition of IL2” value in data set [2] (50 units/ml recombinant IL2 added at the initiation of culture) is “reversed”. The IC50 in data set [2] (Mus musculus, T-cell, based on a series of 5 additional experiments, read-out: IC50, generally in the range of) lay within 1.57 to 5.2 ng/mL. In data set [2] (result in words), the “immunosuppressant activity (inhibition of T-cell activation / T-cell proliferation assay)” value is reported as “positive inhibition of T-cell activation; also recorded: positive immunosuppressive activity”. In data set [3], the Solubility result is recorded as “Solubility in methanol”.

A word on the inhibition: it is the share of the control response that was lost under treatment. In general, IC50 refers to the point on the concentration scale where inhibition reaches its midpoint.
